Measurements taken from patent US9434743B2, “Indazole derivatives” (TAKEDA PHARMACEUTICAL COMPANY LIMITED, priority 2012, dated 2016).

Assays:
human MetAP2 enzyme [1] = target: T1, human MetAP2 enzyme (Homo sapiens, UniProt P50579); experiment: MetAP2 enzyme assay, enzyme complexed with manganese ions; conditions: MetAP2 Mn pIC50, MetAP2 enzyme complexed with manganese ions; Met-AMC substrate at Km
human MetAP2 enzyme [2] = target: T1, human MetAP2 enzyme; experiment: MetAP2 enzyme assay, enzyme complexed with cobalt ions; conditions: MetAP2 Co pIC50, MetAP2 enzyme complexed with cobalt ions; Met-AMC substrate at Km

T1 sequence (P50579 whole entry): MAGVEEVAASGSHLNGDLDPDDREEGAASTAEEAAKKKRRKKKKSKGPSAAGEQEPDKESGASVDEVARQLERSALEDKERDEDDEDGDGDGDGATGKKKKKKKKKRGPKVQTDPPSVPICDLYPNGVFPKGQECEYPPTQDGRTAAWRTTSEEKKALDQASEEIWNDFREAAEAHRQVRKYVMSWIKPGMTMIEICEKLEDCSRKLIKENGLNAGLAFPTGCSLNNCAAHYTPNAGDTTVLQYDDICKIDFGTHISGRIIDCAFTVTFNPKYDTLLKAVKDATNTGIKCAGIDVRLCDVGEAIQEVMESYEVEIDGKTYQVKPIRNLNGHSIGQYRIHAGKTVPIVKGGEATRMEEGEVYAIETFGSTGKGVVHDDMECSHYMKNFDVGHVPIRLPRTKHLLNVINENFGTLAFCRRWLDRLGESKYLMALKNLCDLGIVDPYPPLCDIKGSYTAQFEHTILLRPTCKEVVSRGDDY

IC50 (human MetAP2 enzyme [1]) [nM]	IC50 (human MetAP2 enzyme [2]) [nM]	Structure (SMILES)
25.1	1000	Cn1cc(-c2cc(C(F)(F)F)cc3[nH]ncc23)c(=O)n(CC#N)c1=O [Example 312, 2-(3-methyl-2,6-dioxo-5-(6-(trifluoromethyl)-1H-indazol-4-yl)-2,3-dihydropyrimidin-1(6H)-yl)acetonitrile]
25.1	1580	Cn1cc(-c2cc(C(F)(F)F)cc3[nH]ncc23)c(=O)n(CCN2CCOCC2)c1=O [Example 313, 1-methyl-3-(2-morpholinoethyl)-5-(6-(trifluoromethyl)-1H-indazol-4-yl)pyrimidine-2,4(1H,3H)-dione]
20	631	Cn1cc(C(=O)N2CCOCC2)cc(-c2cc(C(F)(F)F)cc3[nH]ncc23)c1=O [Example 314, 1-methyl-5-(morpholine-4-carbonyl)-3-(6-(trifluoromethyl)-1H-indazol-4-yl)pyridin-2(1H)-one]
10	316	Cn1cc(C(=O)NCCO)cc(-c2cc(C(F)(F)F)cc3[nH]ncc23)c1=O [Example 315, N-(2-hydroxyethyl)-1-methyl-6-oxo-5-(6-(trifluoromethyl)-1H-indazol-4-yl)-1,6-dihydropyridine-3-carboxamide]
10	50.1	COc1ccc(CC(=O)N2CCOCC2)cc1-c1cc(C(F)(F)F)cc2[nH]ncc12 [Example 316, 2-(4-methoxy-3-(6-(trifluoromethyl)-1H-indazol-4-yl)phenyl)-1-morpholinoethanone]
20	63.1	Cc1nn(CC(=O)N2CCOCC2)c(C)c1-c1cc(C(F)(F)F)cc2[nH]ncc12 [Example 317, 2-(3,5-dimethyl-4-(6-(trifluoromethyl)-1H-indazol-4-yl)-1H-pyrazol-1-yl)-1-morpholinoethanone]
12.6	39.8	COc1cc(C(=O)N2CCOCC2)ccc1-c1cc(C(F)(F)F)cc2[nH]ncc12 [Example 318, (3-methoxy-4-(6-(trifluoromethyl)-1H-indazol-4-yl)phenyl)(morpholino)methanone]
39.8	1260	CN(C)CCn1c(=O)c(-c2cc(C(F)(F)F)cc3[nH]ncc23)cn(C)c1=O [Example 319, 3-(2-(dimethylamino)ethyl)-1-methyl-5-(6-(trifluoromethyl)-1H-indazol-4-yl)pyrimidine-2,4(1H,3H)-dione]
15.8	25.1	COc1ccc(CC(=O)NCCO)cc1-c1cc(C(F)(F)F)cc2[nH]ncc12 [Example 320, N-(2-hydroxyethyl)-2-(4-methoxy-3-(6-(trifluoromethyl)-1H-indazol-4-yl)phenyl)acetamide]
15.8	20	NC(=O)c1ccc(-c2cc(C(F)(F)F)cc3[nH]ncc23)c(F)c1 [Example 321, 3-fluoro-4-(6-(trifluoromethyl)-1H-indazol-4-yl)benzamide]
12.6	10	COCc1[nH]nc(C)c1-c1cc(C(F)(F)F)cc2[nH]ncc12 [Example 323, 4-(5-(methoxymethyl)-3-methyl-1H-pyrazol-4-yl)-6-(trifluoromethyl)-1H-indazole]
31.6	63.1	CC(=O)Cn1nc(C)c(-c2cc(C(F)(F)F)cc3[nH]ncc23)c1C [Example 324, 1-(3,5-dimethyl-4-(6-(trifluoromethyl)-1H-indazol-4-yl)-1H-pyrazol-1-yl)propan-2-one]
25.1	63.1	COc1ccc(C(=O)N2CCN(C)C(=O)C2)cc1-c1cc(C(F)(F)F)cc2[nH]ncc12 [Example 325, 4-(4-methoxy-3-(6-(trifluoromethyl)-1H-indazol-4-yl)benzoyl)-1-methylpiperazin-2-one]
12.6	31.6	NC(=O)c1ccc(F)c(-c2cc(C(F)(F)F)cc3[nH]ncc23)c1 [Example 326, 4-fluoro-3-(6-(trifluoromethyl)-1H-indazol-4-yl)benzamide]
63.1	631	Cc1nn(C)c(C(N)=O)c1-c1cc(C(F)(F)F)cc2[nH]ncc12 [Example 327, 1,3-dimethyl-4-(6-(trifluoromethyl)-1H-indazol-4-yl)-1H-pyrazole-5-carboxamide]
12.6	12.6	COc1ccc(C(=O)N2CC(O)C2)cc1-c1cc(C(F)(F)F)cc2[nH]ncc12 [Example 328, (3-hydroxyazetidin-1-yl)(4-methoxy-3-(6-(trifluoromethyl)-1H-indazol-4-yl)phenyl)methanone]
15.8	39.8	NS(=O)(=O)c1cccc(-c2cc(C(F)(F)F)cc3[nH]ncc23)c1 [Example 329, 3-(6-(trifluoromethyl)-1H-indazol-4-yl)benzenesulfonamide]
10	15.8	O=C(NCCO)c1ccc(-c2cc(C(F)(F)F)cc3[nH]ncc23)c(Cl)c1 [Example 331, 3-chloro-N-(2-hydroxyethyl)-4-(6-(trifluoromethyl)-1H-indazol-4-yl)benzamide]

IC50 (human MetAP2 enzyme [1]) [nM]	IC50 (human MetAP2 enzyme [2]) [nM]	Structure (SMILES)
12.6	316	O=C(NC1CC1)c1c[nH]c(=O)c(-c2cc(C(F)(F)F)cc3[nH]ncc23)c1 [Example 332, N-cyclopropyl-6-oxo-5-(6-(trifluoromethyl)-1H-indazol-4-yl)-1,6-dihydropyridine-3-carboxamide]
12.6	251	N#CCNC(=O)c1c[nH]c(=O)c(-c2cc(C(F)(F)F)cc3[nH]ncc23)c1 [Example 333, N-(cyanomethyl)-6-oxo-5-(6-(trifluoromethyl)-1H-indazol-4-yl)-1,6-dihydropyridine-3-carboxamide]
20	794	CN(C)C(=O)c1c[nH]c(=O)c(-c2cc(C(F)(F)F)cc3[nH]ncc23)c1 [Example 334, N,N-dimethyl-6-oxo-5-(6-(trifluoromethyl)-1H-indazol-4-yl)-1,6-dihydropyridine-3-carboxamide]
15.8	631	C[C@H](O)CNC(=O)c1c[nH]c(=O)c(-c2cc(C(F)(F)F)cc3[nH]ncc23)c1 [Example 335, (S)—N-(2-hydroxypropyl)-6-oxo-5-(6-(trifluoromethyl)-1H-indazol-4-yl)-1,6-dihydropyridine-3-carboxamide]
10	631	C[C@@H](O)CNC(=O)c1c[nH]c(=O)c(-c2cc(C(F)(F)F)cc3[nH]ncc23)c1 [Example 336, (R)—N-(2-hydroxypropyl)-6-oxo-5-(6-(trifluoromethyl)-1H-indazol-4-yl)-1,6-dihydropyridine-3-carboxamide]
15.8	398	O=C(NCC(O)CO)c1c[nH]c(=O)c(-c2cc(C(F)(F)F)cc3[nH]ncc23)c1 (stereo not drawn) [Example 337, N-(2,3-dihydroxypropyl)-6-oxo-5-(6-(trifluoromethyl)-1H-indazol-4-yl)-1,6-dihydropyridine-3-carboxamide]
10	398	O=C(NCC(F)F)c1c[nH]c(=O)c(-c2cc(C(F)(F)F)cc3[nH]ncc23)c1 [Example 338, N-(2,2-difluoroethyl)-6-oxo-5-(6-(trifluoromethyl)-1H-indazol-4-yl)-1,6-dihydropyridine-3-carboxamide]
20	126	Fc1c[nH]c2ncc(-c3cc(C(F)(F)F)cc4[nH]ncc34)cc12 [Example 339, 4-(3-fluoro-1H-pyrrolo[2,3-b]pyridin-5-yl)-6-(trifluoromethyl)-1H-indazole]
15.8	100	Cc1c[nH]c2ncc(-c3cc(C(F)(F)F)cc4[nH]ncc34)cc12 [Example 340, 4-(3-methyl-1H-pyrrolo[2,3-b]pyridin-5-yl)-6-(trifluoromethyl)-1H-indazole]
7.94	15.8	Cc1nc2cc(-c3cc(C(F)(F)F)cc4[nH]ncc34)cnc2[nH]1 [Example 341, 2-methyl-6-(6-(trifluoromethyl)-1H-indazol-4-yl)-3H-imidazo[4,5-b]pyridine]
6.31	39.8	NS(=O)(=O)c1ccc(-c2cc(C(F)(F)F)cc3[nH]ncc23)c(F)c1 [Example 342, 3-fluoro-4-(6-(trifluoromethyl)-1H-indazol-4-yl)benzenesulfonamide]
6.31	100	NS(=O)(=O)c1ccc(-c2cc(C(F)(F)F)cc3[nH]ncc23)cc1Cl [Example 343, 2-chloro-4-(6-(trifluoromethyl)-1H-indazol-4-yl)benzenesulfonamide]
6.31	100	NS(=O)(=O)c1ccc(-c2cc(C(F)(F)F)cc3[nH]ncc23)cc1F [Example 344, 2-fluoro-4-(6-(trifluoromethyl)-1H-indazol-4-yl)benzenesulfonamide]
5.01	100	NS(=O)(=O)c1ccc(-c2cc(C(F)(F)F)cc3[nH]ncc23)cn1 [Example 345, 5-(6-(trifluoromethyl)-1H-indazol-4-yl)pyridine-2-sulfonamide]
5.01	100	NS(=O)(=O)c1cncc(-c2cc(C(F)(F)F)cc3[nH]ncc23)c1 [Example 346, 5-(6-(trifluoromethyl)-1H-indazol-4-yl)pyridine-3-sulfonamide]
6.31	63.1	CS(=O)(=O)c1ccc(-c2cc(C(F)(F)F)cc3[nH]ncc23)cc1 [Example 347, 4-(4-(methylsulfonyl)phenyl)-6-(trifluoromethyl)-1H-indazole]
12.6	79.4	Cc1nn(C(F)F)c(C)c1-c1cc(C(F)(F)F)cc2[nH]ncc12 [Example 348, 4-(1-(difluoromethyl)-3,5-dimethyl-1H-pyrazol-4-yl)-6-(trifluoromethyl)-1H-indazole]
6.31	100	OCCn1cc(-c2cc(C(F)(F)F)cc3[nH]ncc23)cn1 [Example 349, 2-(4-(6-(trifluoromethyl)-1H-indazol-4-yl)-1H-pyrazol-1-yl)ethanol]
